# Measured values taken from patent US20140303166A1, “COSMETIC METHOD FOR CHANGING THE APPEARANCE OF EYES” (priority 2013, published 2014).
# Structures can show the parent of a compound that is named as a salt.
# Tested on: eyelids
# Test: topical application to the eyelids (eyelid retraction / eye-widening)
# Assay type: in vivo
# Details: topically applied, alone or in combination
# Excerpt: Topical treatments to which the current application is directed include ointments, creams, and solutions that contain one or more of the compounds travoprost, dorzolamide hydrochloride, and timolol maleate, alone or in combination, and/or one or more chemically-related compounds and may also include pure forms of various types of prostaglandin, synthetic prostaglandin, and synthetic prostaglandin analogues.
row,Structure (SMILES),eyelid retraction after topical application to the eyelids
1,"CCNC(=O)CCCC=CCC1C(O)CC(O)C1C=CC(O)CCc1ccccc1 (stereo not drawn) [bimatoprost, 7-[3,5-dihydroxy-2-(3-hydroxy-5-phenyl-pent-1-enyl)-cyclopentyl]-N-ethyl-hept-5-enamide]",cause the eyelids to retract more completely
2,"CCN[C@H]1C[C@H](C)S(=O)(=O)c2sc(S(N)(=O)=O)cc21 [dorzolamide hydrochloride, (4S,6S)-2-ethylamino-4-methyl-5,5-dioxo-5λ^6,7dithiabicyclo[4.3.0] nona-8,10-diene-8-sulfonamide]",cause the eyelids to retract more completely
3,"CC(C)OC(=O)CCC/C=C\C[C@@H]1[C@@H](CC[C@@H](O)CCc2ccccc2)[C@H](O)C[C@@H]1O [latanoprost, isopropyl (Z)-7-[(1R,2R,3R,5S)-3,5-dihydroxy-2-[(3R)3-hydroxy-5-phenylpentyl]-cyclopentyl] hept-5-enoate]",cause the eyelids to retract more completely
4,"CC(C)(C)NC[C@H](O)COc1nsnc1N1CCOCC1 [timolol maleate, (S)-1-(tert-butylamino)-3-[(4-morpholin-4-yl-1,2,5-thiadiazol-3-yl)oxy]propan-2-ol]",cause the eyelids to retract more completely
5,"CC(C)OC(=O)CCCC=CCC1C(O)CC(O)C1C=CC(O)COc1cccc(C(F)(F)F)c1 (stereo not drawn) [travoprost, propan-2-yl 7-[3,5-dihydroxy-2-[3-hydroxy-4-[3-(trifluoromethyl)phenoxy]-but-1-enyl]-cyclopentyl]hept-5-enoate]",cause the eyelids to retract more completely
6,"CCCCCCCC(=O)CC[C@@H]1[C@@H](C/C=C\CCCC(=O)OC(C)C)[C@@H](O)C[C@H]1O [unoprostone, isopropyl (Z)-7-[(1R,2R,3R,5 S)-3,5-dihydroxy-2-(3-oxodecyl)cyclopentyl] hept-5-enoic acid]",cause the eyelids to retract more completely
